{"source": "patent US20240115527A1", "about": "“CXCR1/CXCR2 INHIBITORS FOR USE IN TREATING MYELOFIBROSIS” (Icahn School of Medicine at Mount Sinai, priority 2020, published 2024)", "key": {"MF CD34+ cells": {"test_system": "MF CD34+ cells", "test": "Clonal assays of MF CD34+ cells; JAK2V617F allele status of picked hematopoietic colonies", "type": "cell-based, human", "experimental": "Individual hematopoietic colonies were randomly picked from clonal assays of CD34^+ cells from 6 MF cases and the JAK2V617F allele status was determined.\nIL-8 alone increased the absolute numbers of JAK2V617F+ colonies, and the addition of Ladarixin reduced the numbers of JAK2V617F positive colonies stimulated by IL-8 (Tables 1-3)."}, "normal donor CD34+ cells": {"test_system": "normal donor CD34+ cells", "test": "Proliferation and lineage differentiation of normal donor cells cultured with IL-8, flow cytometry", "type": "cell-based, human", "details": "ladarixin added to IL-8 culture, FIG. 4A"}, "[1]": {"details": "MF4 CD34+ cells, ladarixin 10 μM + IL-8 10 ng"}, "[2]": {"details": "MF4 CD34+ cells, ladarixin 10 μM + IL-8 20 ng"}, "[3]": {"details": "MF4 CD34+ cells, ladarixin 10 μM + IL-8 50 ng"}, "[4]": {"details": "MF4 CD34+ cells, ladarixin 10 μM + IL-8 100 ng"}, "[5]": {"details": "MF4 CD34+ cells, ladarixin 10 μM, no IL-8"}, "[6]": {"details": "MF4 CD34+ cells, ladarixin 20 μM + IL-8 20 ng"}, "[7]": {"details": "MF4 CD34+ cells, ladarixin 20 μM, no IL-8"}, "[8]": {"details": "MF5 CD34+ cells, ladarixin 10 μM + IL-8 10 ng"}, "[9]": {"details": "MF5 CD34+ cells, ladarixin 10 μM + IL-8 20 ng"}, "[10]": {"details": "MF5 CD34+ cells, ladarixin 10 μM + IL-8 50 ng"}, "[11]": {"details": "MF5 CD34+ cells, ladarixin 10 μM + IL-8 100 ng"}, "[12]": {"details": "MF5 CD34+ cells, ladarixin 10 μM, no IL-8"}, "[13]": {"details": "MF5 CD34+ cells, ladarixin 20 μM + IL-8 20 ng"}, "[14]": {"details": "MF5 CD34+ cells, ladarixin 20 μM, no IL-8"}, "[15]": {"details": "MF6 CD34+ cells, ladarixin 10 μM + IL-8 10 ng"}, "[16]": {"details": "MF6 CD34+ cells, ladarixin 10 μM + IL-8 20 ng"}, "[17]": {"details": "MF6 CD34+ cells, ladarixin 10 μM + IL-8 50 ng"}, "[18]": {"details": "MF6 CD34+ cells, ladarixin 10 μM + IL-8 100 ng"}, "[19]": {"details": "MF6 CD34+ cells, ladarixin 10 μM, no IL-8"}, "[20]": {"details": "MF6 CD34+ cells, ladarixin 20 μM + IL-8 20 ng"}, "[21]": {"details": "MF6 CD34+ cells, ladarixin 20 μM, no IL-8"}}}
{"smiles": "C[C@@H](C(=O)NS(C)(=O)=O)c1ccc(OS(=O)(=O)C(F)(F)F)cc1", "note": "[Ladarixin, R(-)-2-[(4′-trifluoromethanesulfonyloxy)phenyl]-N-methanesulfonyl propionamide]", "values": [{"measurement": "number of colonies, Homo (JAK2V617F homozygous)", "setting": "MF CD34+ cells; [1]", "value": 0}, {"measurement": "number of colonies, Wild (JAK2 wild type)", "setting": "MF CD34+ cells; [1]", "value": 0}, {"measurement": "number of colonies, Heter (JAK2V617F heterozygous)", "setting": "MF CD34+ cells; [2]", "value": 113}, {"measurement": "number of colonies, Homo (JAK2V617F homozygous)", "setting": "MF CD34+ cells; [2]", "value": 0}, {"measurement": "number of colonies, Wild (JAK2 wild type)", "setting": "MF CD34+ cells; [2]", "value": 0}, {"measurement": "number of colonies, Heter (JAK2V617F heterozygous)", "setting": "MF CD34+ cells; [3]", "value": 137}, {"measurement": "number of colonies, Homo (JAK2V617F homozygous)", "setting": "MF CD34+ cells; [3]", "value": 0}, {"measurement": "number of colonies, Wild (JAK2 wild type)", "setting": "MF CD34+ cells; [3]", "value": 0}, {"measurement": "number of colonies, Heter (JAK2V617F heterozygous)", "setting": "MF CD34+ cells; [4]", "value": 112}, {"measurement": "number of colonies, Homo (JAK2V617F homozygous)", "setting": "MF CD34+ cells; [4]", "value": 7}, {"measurement": "number of colonies, Wild (JAK2 wild type)", "setting": "MF CD34+ cells; [4]", "value": 0}, {"measurement": "number of colonies, Heter (JAK2V617F heterozygous)", "setting": "MF CD34+ cells; [5]", "value": 163}, {"measurement": "number of colonies, Homo (JAK2V617F homozygous)", "setting": "MF CD34+ cells; [5]", "value": 23}, {"measurement": "number of colonies, Wild (JAK2 wild type)", "setting": "MF CD34+ cells; [5]", "value": 0}, {"measurement": "number of colonies, Heter (JAK2V617F heterozygous)", "setting": "MF CD34+ cells; [6]", "value": 134}, {"measurement": "number of colonies, Homo (JAK2V617F homozygous)", "setting": "MF CD34+ cells; [6]", "value": 0}, {"measurement": "number of colonies, Wild (JAK2 wild type)", "setting": "MF CD34+ cells; [6]", "value": 0}, {"measurement": "number of colonies, Heter (JAK2V617F heterozygous)", "setting": "MF CD34+ cells; [7]", "value": 142}, {"measurement": "number of colonies, Homo (JAK2V617F homozygous)", "setting": "MF CD34+ cells; [7]", "value": 0}, {"measurement": "number of colonies, Wild (JAK2 wild type)", "setting": "MF CD34+ cells; [7]", "value": 0}, {"measurement": "number of colonies, Heter (JAK2V617F heterozygous)", "setting": "MF CD34+ cells; [8]", "value": 0}, {"measurement": "number of colonies, Homo (JAK2V617F homozygous)", "setting": "MF CD34+ cells; [8]", "value": 0}, {"measurement": "number of colonies, Wild (JAK2 wild type)", "setting": "MF CD34+ cells; [8]", "value": 148}, {"measurement": "number of colonies, Heter (JAK2V617F heterozygous)", "setting": "MF CD34+ cells; [9]", "value": 0}, {"measurement": "number of colonies, Homo (JAK2V617F homozygous)", "setting": "MF CD34+ cells; [9]", "value": 0}, {"measurement": "number of colonies, Wild (JAK2 wild type)", "setting": "MF CD34+ cells; [9]", "value": 138}, {"measurement": "number of colonies, Heter (JAK2V617F heterozygous)", "setting": "MF CD34+ cells; [10]", "value": 0}, {"measurement": "number of colonies, Homo (JAK2V617F homozygous)", "setting": "MF CD34+ cells; [10]", "value": 0}, {"measurement": "number of colonies, Wild (JAK2 wild type)", "setting": "MF CD34+ cells; [10]", "value": 151}, {"measurement": "number of colonies, Heter (JAK2V617F heterozygous)", "setting": "MF CD34+ cells; [11]", "value": 0}, {"measurement": "number of colonies, Homo (JAK2V617F homozygous)", "setting": "MF CD34+ cells; [11]", "value": 0}, {"measurement": "number of colonies, Wild (JAK2 wild type)", "setting": "MF CD34+ cells; [11]", "value": 144}, {"measurement": "number of colonies, Heter (JAK2V617F heterozygous)", "setting": "MF CD34+ cells; [12]", "value": 0}, {"measurement": "number of colonies, Homo (JAK2V617F homozygous)", "setting": "MF CD34+ cells; [12]", "value": 0}, {"measurement": "number of colonies, Wild (JAK2 wild type)", "setting": "MF CD34+ cells; [12]", "value": 107}, {"measurement": "number of colonies, Heter (JAK2V617F heterozygous)", "setting": "MF CD34+ cells; [13]", "value": 0}, {"measurement": "number of colonies, Homo (JAK2V617F homozygous)", "setting": "MF CD34+ cells; [13]", "value": 0}, {"measurement": "number of colonies, Wild (JAK2 wild type)", "setting": "MF CD34+ cells; [13]", "value": 131}, {"measurement": "number of colonies, Heter (JAK2V617F heterozygous)", "setting": "MF CD34+ cells; [14]", "value": 0}, {"measurement": "number of colonies, Homo (JAK2V617F homozygous)", "setting": "MF CD34+ cells; [14]", "value": 0}, {"measurement": "number of colonies, Wild (JAK2 wild type)", "setting": "MF CD34+ cells; [14]", "value": 141}, {"measurement": "number of colonies, Heter (JAK2V617F heterozygous)", "setting": "MF CD34+ cells; [15]", "value": 0}, {"measurement": "number of colonies, Homo (JAK2V617F homozygous)", "setting": "MF CD34+ cells; [15]", "value": 0}, {"measurement": "number of colonies, Wild (JAK2 wild type)", "setting": "MF CD34+ cells; [15]", "value": 119}, {"measurement": "number of colonies, Heter (JAK2V617F heterozygous)", "setting": "MF CD34+ cells; [16]", "value": 0}, {"measurement": "number of colonies, Homo (JAK2V617F homozygous)", "setting": "MF CD34+ cells; [16]", "value": 0}, {"measurement": "number of colonies, Wild (JAK2 wild type)", "setting": "MF CD34+ cells; [16]", "value": 121}, {"measurement": "number of colonies, Heter (JAK2V617F heterozygous)", "setting": "MF CD34+ cells; [17]", "value": 0}, {"measurement": "number of colonies, Homo (JAK2V617F homozygous)", "setting": "MF CD34+ cells; [17]", "value": 0}, {"measurement": "number of colonies, Wild (JAK2 wild type)", "setting": "MF CD34+ cells; [17]", "value": 122}, {"measurement": "number of colonies, Heter (JAK2V617F heterozygous)", "setting": "MF CD34+ cells; [18]", "value": 0}, {"measurement": "number of colonies, Homo (JAK2V617F homozygous)", "setting": "MF CD34+ cells; [18]", "value": 0}, {"measurement": "number of colonies, Wild (JAK2 wild type)", "setting": "MF CD34+ cells; [18]", "value": 119}, {"measurement": "number of colonies, Heter (JAK2V617F heterozygous)", "setting": "MF CD34+ cells; [19]", "value": 0}, {"measurement": "number of colonies, Homo (JAK2V617F homozygous)", "setting": "MF CD34+ cells; [19]", "value": 0}, {"measurement": "number of colonies, Wild (JAK2 wild type)", "setting": "MF CD34+ cells; [19]", "value": 119}, {"measurement": "number of colonies, Heter (JAK2V617F heterozygous)", "setting": "MF CD34+ cells; [20]", "value": 0}, {"measurement": "number of colonies, Homo (JAK2V617F homozygous)", "setting": "MF CD34+ cells; [20]", "value": 0}, {"measurement": "number of colonies, Wild (JAK2 wild type)", "setting": "MF CD34+ cells; [20]", "value": 106}, {"measurement": "number of colonies, Heter (JAK2V617F heterozygous)", "setting": "MF CD34+ cells; [21]", "value": 0}, {"measurement": "number of colonies, Homo (JAK2V617F homozygous)", "setting": "MF CD34+ cells; [21]", "value": 0}, {"measurement": "number of colonies, Wild (JAK2 wild type)", "setting": "MF CD34+ cells; [21]", "value": 105}, {"measurement": "numbers of JAK2V617F positive colonies stimulated by IL-8", "setting": "MF CD34+ cells; addition of Ladarixin, 6 MF cases", "value": "reduced"}, {"measurement": "effect on IL-8 induced change of normal CD34+, CD41+ and CD33+ cell populations", "setting": "normal donor CD34+ cells", "value": "reversed the effects of IL-8"}]}
